Experimental findings from US20250179078A1, “INHIBITORS OF NLRP3” (PTC THERAPEUTICS, INC., priority 2022, published 2025) are described below.

One may read the IC50 as the concentration that gives 50% inhibition.

The structures appear in SMILES notation.

T1 sequence (Q96P20 whole entry): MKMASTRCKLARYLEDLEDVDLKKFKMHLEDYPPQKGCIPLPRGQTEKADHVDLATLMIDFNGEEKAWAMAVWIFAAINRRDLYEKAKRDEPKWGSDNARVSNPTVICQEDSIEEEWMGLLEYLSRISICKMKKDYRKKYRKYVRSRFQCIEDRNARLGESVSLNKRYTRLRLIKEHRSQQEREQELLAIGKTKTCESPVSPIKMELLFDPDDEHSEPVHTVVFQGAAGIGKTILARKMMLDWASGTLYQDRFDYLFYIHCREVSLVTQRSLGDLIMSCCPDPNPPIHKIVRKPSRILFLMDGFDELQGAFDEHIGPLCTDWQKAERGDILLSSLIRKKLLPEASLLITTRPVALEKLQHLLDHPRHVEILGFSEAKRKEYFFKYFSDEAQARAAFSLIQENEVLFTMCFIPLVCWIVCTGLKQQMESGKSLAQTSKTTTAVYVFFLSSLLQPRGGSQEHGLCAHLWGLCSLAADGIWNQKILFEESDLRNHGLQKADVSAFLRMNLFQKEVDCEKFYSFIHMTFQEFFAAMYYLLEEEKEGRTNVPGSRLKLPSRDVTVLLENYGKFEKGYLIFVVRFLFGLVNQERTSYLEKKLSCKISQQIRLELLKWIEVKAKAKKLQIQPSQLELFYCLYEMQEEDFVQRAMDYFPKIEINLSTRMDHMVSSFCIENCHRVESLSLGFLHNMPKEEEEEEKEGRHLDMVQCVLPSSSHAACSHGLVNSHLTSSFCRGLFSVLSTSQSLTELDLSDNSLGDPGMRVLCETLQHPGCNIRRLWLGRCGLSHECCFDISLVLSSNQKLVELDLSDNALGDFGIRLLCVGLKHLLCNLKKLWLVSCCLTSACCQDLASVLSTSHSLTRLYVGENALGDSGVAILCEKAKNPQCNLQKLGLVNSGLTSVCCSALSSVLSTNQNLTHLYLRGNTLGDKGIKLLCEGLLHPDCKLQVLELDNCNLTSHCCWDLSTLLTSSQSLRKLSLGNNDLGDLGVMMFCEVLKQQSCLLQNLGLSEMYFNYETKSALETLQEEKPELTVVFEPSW

This assay has as its target T1, NLRP3 (Homo sapiens, UniProt Q96P20).
T1 construct: host or cells: THP-1 cells differentiated with PMA
Nature of the assay: IL-1β Secretion Assay (NLRP3-dependent IL1β secretion in THP1 cells). Type of assay: cell-based. The note with it: PMA-differentiated THP-1 cells; compounds incubated 20 h; 2.5 μM Nigericin 3 h; HTRF IL-1β readout; read-out: IC50 IL-1β Inhibition. On the procedure:
Monocytic THP-1 cells (ATCC: TIB-202) were maintained in growth media consisting of RPMI 1640 medium (ThermoFisher, Cat #11875-085), 10% FBS (ThermoFisher) and 0.05 mM β-mercaptoethanol (ThermoFisher, Cat #21985-023), according to the provider's instructions. The cell concentration was adjusted to 7.5×10^5 cells/mL, and plated in complete growth media with a final concentration of 100 ng/mL phorbol 12-myristate 13-acetate (PMA, Sigma #P8139). Cells were seeded at 100 µL/well into a 96-well cell culture plate (ThermoFisher Cat #165305) and allowed to differentiate for 24 h in a cell culture incubator at 37° C. with 5% CO2. Cells were washed 1× with 100 ul PBS and replaced with fresh RPMI+5% FBS. Compounds were serial diluted in DMSO with 3 fold dilution for a total of 7 concentrations. Diluted compounds were added to the cells at a ratio of 1:200 and incubated for 20 h. The NLRP3 inflammasome was activated with the addition of 2.5 μM Nigericin (Sigma: Cat #SML1779-1 ml), for 3 h. After incubation, 15 μL of conditioned media was removed and assayed for levels of IL-1β using the HTRF IL-1β assay kit (Cisbio: Cat #62HIL1BPEH) as per the manufacturer's instructions.
Compounds, once produced and prepared according to the present invention, can be assessed in variety of assays to characterize their activities. For example, NLRP3-dependent IL1β secretion was evaluated in THP1 cells. IC50 values of IL1β inhibition were calculated from the plot of percentage of inhibition versus the inhibitor concentration by a logistics fit. TABLE I depict examples of compounds according to generic Formula I. Data which is <1 nM is listed as *****; data 1-10 nM is listed as ****; data 10-100 nM is listed as ***, data 100-300 nM is listed as **, data ≥300 nM is listed as *.
`CCN1CCC[C@@H](Nc2nnc(-c3ccc(C(F)(F)F)cc3OC(F)(F)F)c3cccn23)C1` [Compound 119, N-[(3R)-1-ethylpiperidin-3-yl]-1-[2-(trifluoromethoxy)-4-(trifluoromethyl)phenyl]pyrrolo[1,2-d][1,2,4]triazin-4-amine]: the half-inhibitory concentration (IC50) was less than 0.001 µM.

As to `COc1ccc(-c2nnc(N[C@@H]3C[C@@H](F)CN(C)C3)n3ccc(F)c23)c(OC(F)(F)F)c1` [Compound 52, 8-fluoro-N-[(3R,5R)-5-fluoro-1-methylpiperidin-3-yl]-1-[4-methoxy-2-(trifluoromethoxy)phenyl]pyrrolo[1,2-d][1,2,4]triazin-4-amine], the IC50 was 0.001 to 0.01 µM.

As for `C[C@]1(O)C[C@@H](Nc2nnc(-c3ccc(Br)cc3C(F)(F)F)c3cncn23)C1` [Compound 204, (1s,3s)-3-({1-[4-bromo-2-(trifluoromethyl)phenyl]imidazo[1,5-d][1,2,4]triazin-4-yl}amino)-1-methylcyclobutan-1-ol], the IC50 lay within 0.001 to 0.01 µM.

`COc1ccc(-c2nnc(N[C@H]3C[C@@](C)(O)C3)n3cccc23)c(OC(F)(F)F)c1` [Compound 9, (1s,3s)-3-({1-[4-methoxy-2-(trifluoromethoxy)phenyl]pyrrolo[1,2-d][1,2,4]triazin-4-yl}amino)-1-methylcyclobutan-1-ol]: the IC50 fell in the range of 0.001 to 0.01 µM.

On to `Cc1cc2c(-c3ccc(C(F)(F)F)cc3C(F)(F)F)nnc(N[C@@H]3CCOC[C@H]3O)n2c1` [Compound 164, (3S,4R)-4-({1-[2,4-bis(trifluoromethyl)phenyl]-7-methylpyrrolo[1,2-d][1,2,4]triazin-4-yl}amino)oxan-3-ol], for which the IC50 lay within 0.1 to 0.3 µM.

For the compound `Cc1cc2c(-c3ccc(C4CC4)cc3OC(F)F)nnc(N[C@@H]3CCCN(C)C3)n2n1` [Compound 360, 4-[4-cyclopropyl-2-(difluoromethoxy)phenyl]-2-methyl-N-[(3R)-1-methylpiperidin-3-yl]pyrazolo[1,5-d][1,2,4]triazin-7-amine], the IC50 was less than 0.001 µM.

As to `O=C1NCCC1Nc1nnc(-c2ccc(C(F)(F)F)cc2C(F)(F)F)c2ccnn12` (stereo not shown) [Compound 396, 3-({4-[2,4-bis(trifluoromethyl)phenyl]pyrazolo[1,5-d][1,2,4]triazin-7-yl}amino)pyrrolidin-2-one], the IC50 was in the range of 0.01 to 0.1 µM.

In the case of `COc1ccc(-c2nnc(N[C@H]3C[C@](C)(CO)C3)n3cncc23)c(CC(F)(F)F)c1` [Compound 336, [(1r,3r)-3-({1-[4-methoxy-2-(2,2,2-trifluoroethyl)phenyl]imidazo[1,5-d][1,2,4]triazin-4-yl}amino)-1-methylcyclobutyl]methanol], the IC50 was 0.01 to 0.1 µM.

Take `Cc1ccc(-c2nnc(NC(C)c3cccc(O)c3)n3cncc23)c(CC(F)(F)F)c1` (stereo not shown) [Compound 297, 3-[1-({1-[4-methyl-2-(2,2,2-trifluoroethyl)phenyl]imidazo[1,5-d][1,2,4]triazin-4-yl}amino)ethyl]phenol]: the IC50 was 0.001 to 0.01 µM.

As to `COc1ccc(-c2nnc(N[C@@H]3CCOC[C@H]3O)n3cncc23)c(CC(F)(F)F)c1` [Compound 249, (3S,4R)-4-({1-[4-methoxy-2-(2,2,2-trifluoroethyl)phenyl]imidazo[1,5-d][1,2,4]triazin-4-yl}amino)oxan-3-ol], the IC50 fell in the range of 0.001 to 0.01 µM.

On to `CCN1CCC[C@@H](Nc2nnc(-c3ccc(C(F)(F)F)cc3C(N)=O)c3cc(C)nn23)C1` [Compound 372, 2-(7-{[(3R)-1-ethylpiperidin-3-yl]amino}-2-methylpyrazolo[1,5-d][1,2,4]triazin-4-yl)-5-(trifluoromethyl)benzamide], for which the IC50 lay in the range of 0.01 to 0.1 µM.

As for `CCN1C[C@H](F)C[C@@H](Nc2nnc(-c3ccc(Br)cc3OC(F)F)c3cncn23)C1` [Compound 196, 1-[4-bromo-2-(difluoromethoxy)phenyl]-N-[(3R,5R)-1-ethyl-5-fluoropiperidin-3-yl]imidazo[1,5-d][1,2,4]triazin-4-amine], the IC50 is less than 0.001 µM.

For `OCCN1CCC[C@@H](Nc2nnc(-c3ccc(C(F)(F)F)cc3CC(F)(F)F)c3cncn23)C1` [Compound 301], the IC50 was less than 0.001 µM.

Regarding `CC(C)CN1CCC[C@@H](Nc2nnc(-c3ccc(C(F)(F)F)cc3C(F)(F)F)c3cccn23)C1` [Compound 10, 1-[2,4-bis(trifluoromethyl)phenyl]-N-[(3R)-1-(2-methylpropyl)piperidin-3-yl]pyrrolo[1,2-d][1,2,4]triazin-4-amine], the half-inhibitory concentration (IC50) lay within 0.001 to 0.01 µM.

Take `COc1ccc(-c2nnc(N[C@@H]3CCCN(C)C3)n3cccc23)c(Br)c1` [Compound 47, 1-(2-bromo-4-methoxyphenyl)-N-[(3R)-1-methylpiperidin-3-yl]pyrrolo[1,2-d][1,2,4]triazin-4-amine]: the IC50 fell in the range of 0.01 to 0.1 µM.

With `Cc1ccc(-c2nnc(N[C@@H]3CCCC[C@H]3O)n3cccc23)c(OC(F)F)c1` [Compound 136, (1R,2R)-2-({1-[2-(difluoromethoxy)-4-methylphenyl]pyrrolo[1,2-d][1,2,4]triazin-4-yl}amino)cyclohexan-1-ol], the IC50 lay in the range of 0.001 to 0.01 µM.

As for `CC1(CO)CC(Nc2nnc(-c3ccc(C(F)(F)F)cc3OC(F)(F)F)c3cncn23)C1` (stereo not shown) [Compound 335, [1-methyl-3-({1-[2-(trifluoromethoxy)-4-(trifluoromethyl)phenyl]imidazo[1,5-d][1,2,4]triazin-4-yl}amino)cyclobutyl]methanol], the IC50 lay within 0.01 to 0.1 µM.

Turning to `C[C@]1(O)C[C@@H](Nc2nnc(-c3ccc(C(F)(F)F)cc3OC(F)(F)F)c3cncn23)C1` [Compound 241, (1s,3s)-1-methyl-3-({1-[2-(trifluoromethoxy)-4-(trifluoromethyl)phenyl]imidazo[1,5-d][1,2,4]triazin-4-yl}amino)cyclobutan-1-ol], the IC50 is less than 0.001 µM.

Take `O[C@@H]1CCCC[C@H]1Nc1nnc(-c2ccc(C(F)(F)F)cc2OC(F)(F)F)c2cncn12` [Compound 242, (1R,2R)-2-({1-[2-(trifluoromethoxy)-4-(trifluoromethyl)phenyl]imidazo[1,5-d][1,2,4]triazin-4-yl}amino)cyclohexan-1-ol]: the half-maximal inhibitory concentration (IC50) was less than 0.001 µM.

With `COc1ccc(-c2nnc(NC3CCNC3=O)n3cc(C)cc23)c(OC(F)(F)F)c1` (stereo not shown) [Compound 162, 3-({1-[4-methoxy-2-(trifluoromethoxy)phenyl]-7-methylpyrrolo[1,2-d][1,2,4]triazin-4-yl}amino)pyrrolidin-2-one], the IC50 was in the range of 0.001 to 0.01 µM.

For `COCC1CC(Nc2nnc(-c3ccc(OC)cc3CC(F)(F)F)c3cncn23)C1` (stereo not shown) [Compound 326, N-[3-(methoxymethyl)cyclobutyl]-1-[4-methoxy-2-(2,2,2-trifluoroethyl)phenyl]imidazo[1,5-d][1,2,4]triazin-4-amine], the IC50 is 0.01 to 0.1 µM.

Take `CCOc1ccc(-c2nnc(N[C@@H]3CCCN(C)C3)n3cccc23)c(OC(F)(F)F)c1` [Compound 43, 1-[4-ethoxy-2-(trifluoromethoxy)phenyl]-N-[(3R)-1-methylpiperidin-3-yl]pyrrolo[1,2-d][1,2,4]triazin-4-amine]: the IC50 fell in the range of 0.01 to 0.1 µM.

Regarding `O=C1NCCC1Nc1nnc(-c2ccc(C(F)(F)F)cc2C(F)(F)F)c2cncn12` (stereo not shown) [Compound 294, 3-({1-[2,4-bis(trifluoromethyl)phenyl]imidazo[1,5-d][1,2,4]triazin-4-yl}amino)pyrrolidin-2-one], the IC50 was in the range of 0.001 to 0.01 µM.

With `COc1ccc(-c2nnc(N[C@H]3C[C@@](C)(O)C3)n3ccc(F)c23)c(OC(F)F)c1` [Compound 58, (1s,3s)-3-({1-[2-(difluoromethoxy)-4-methoxyphenyl]-8-fluoropyrrolo[1,2-d][1,2,4]triazin-4-yl}amino)-1-methylcyclobutan-1-ol], the IC50 was 0.01 to 0.1 µM.

Take `C[C@]1(O)C[C@@H](Nc2nnc(-c3ccc(C(F)(F)F)cc3C(F)(F)F)c3cncn23)C1` [Compound 218, (1s,3s)-3-({1-[2,4-bis(trifluoromethyl)phenyl]imidazo[1,5-d][1,2,4]triazin-4-yl}amino)-1-methylcyclobutan-1-ol]: the IC50 was in the range of 0.001 to 0.01 µM.

With `OCCN1CCC[C@@H](Nc2nnc(-c3ccc(Cl)cc3OC(F)F)c3cncn23)C1` [Compound 192, 2-[(3R)-3-({1-[4-chloro-2-(difluoromethoxy)phenyl]imidazo[1,5-d][1,2,4]triazin-4-yl}amino)piperidin-1-yl]ethan-1-ol], the IC50 lay in the range of 0.01 to 0.1 µM.

`Cc1cc2c(-c3ccc(C(F)(F)F)cc3CC(F)(F)F)nnc(N[C@@H]3CCCC[C@H]3O)n2n1` [Compound 389, (1R,2R)-2-({2-methyl-4-[2-(2,2,2-trifluoroethyl)-4-(trifluoromethyl)phenyl]pyrazolo[1,5-d][1,2,4]triazin-7-yl}amino)cyclohexan-1-ol]: the concentration for half-maximal inhibition (IC50) was in the range of 0.001 to 0.01 µM.

Consider `CCN1CCC[C@@H](Nc2nnc(-c3ccc(OC)cc3C(F)(F)F)c3c(F)ccn23)C1` [Compound 17, N-[(3R)-1-ethylpiperidin-3-yl]-8-fluoro-1-[4-methoxy-2-(trifluoromethyl)phenyl]pyrrolo[1,2-d][1,2,4]triazin-4-amine], for which the 50% inhibitory concentration (IC50) was in the range of 0.001 to 0.01 µM.
